Assay results: patent US20040014215A1, “Synchronised arabidopsis cell suspensions and uses thereof” (priority 2000, published 2004)

How the values were obtained:
[1] = system: Arabidopsis cell suspension MM2d; test: Aphidicolin block/release of MM2d: mitotic index and labelling index; assay type: cell-based, Arabidopsis thaliana
Procedure: This experiment was carried out as described for Example 1, except that cell line MM2d was used, and the culture conditions throughout the experiment were as described for MM2d in Example 1.
Synchronisation was performed as described in Example 2A, with the exception that before adding aphidicolin, 20 ml of the weekly subcultured cell suspension was transferred into 100 ml fresh MSS-medium in each of 2 separate flasks and cultivated under conditions as described in Example 1 for MM2d. […] Samples were taken at the same time frame for flow cytometry to follow cell cycle transition.
Samples were analysed by flow cytometry to determine the percentage of cells being in G1-, S- and G2M phase. The mitotic index (MI) and labelling index (LI) were independently determined (as described in Example 2A). Results are shown below in table II and in FIG. 1.
Table II. Aphidicolin block/release of Arabidopsis cell suspension MM2d. Data are shown from analysis of samples obtained in the experiment described in Example 2B.

[2] = system: histone H4; test: Northern expression analysis after aphidicolin synchronisation of MM1 (maximum signal = 100%); assay type: cell-based, Arabidopsis thaliana
Procedure: (§1) was analysed following the expression level of known cell cycle regulated genes. Synchronisation was performed as described in Example 2A, with the exception that two 7-day old cultures of the weekly sub-cultured cell suspension (210 ml each) were combined. 40 ml of combined culture was transferred into 200 ml of fresh MSS-medium in each of 10 separate flasks. After incubation for 24 hrs under conditions as described in Example 1, in the presence of 4.16 μg/ml aphidicolin, cells from 5 pooled flasks were washed through a nylon net (mesh size 47 μm) and washed with 2 litre MSS medium and shaken vigorously to remove the aphidicolin. Cells were transferred into a 50 ml plastic tube, washed again with MSS medium and centrifuged at 2500 rpm for 1 min (1075 rcf). Cells were resuspended and combined with the cells from the other 5 flasks similarly washed in a total volume of 300 ml fresh MSS-medium. 30 ml of this cell suspension was then added to 200 ml fresh MSS-medium in each of 10 separate flasks.
(§2) 1) 25 ml for Northern blot (transferred into 50 ml plastic tube, centrifuged at 2500 rpm for 1 min, the supernatant discarded, and the cell pellet shock-frozen in liquid nitrogen before storing in −80° C. freezer)
(§3) Samples were collected at the time point indicated (time of removal of aphidicolin equals time point 0 hrs) and were analysed for expression of the following genes by Northern blot:
histone H4 (ID/Accession no. ATH4 GB/M17133)
(§4) For each probe the maximum hybridisation signal obtained was defined as 100%.

[3] = system: CDK-b1; test: as above; assay type: cell-based, Arabidopsis thaliana
Procedure: as §1, §2, §3
CDK-b1 (also called Cdc2b/CDK2b: Accession no. ATCDC2BP)
as §4

[4] = system: cell cycle; conditions: phase of the cell cycle at which cells are arrested; cited from earlier work
[5] = system: alfalfa-cell suspension; conditions: blocked with aphidicolin for 36 h and released; cited from earlier work
[6] = 0 hrs after aphidicolin removal
[7] = 2 hrs after aphidicolin removal
[8] = 4 hrs after aphidicolin removal
[9] = 6 hrs after aphidicolin removal
[10] = 8 hrs after aphidicolin removal
[11] = 10 hrs after aphidicolin removal
[12] = 12 hrs after aphidicolin removal
[13] = 14 hrs after aphidicolin removal
[14] = 16 hrs after aphidicolin removal
[15] = 18 hrs after aphidicolin removal
[16] = 20 hrs after aphidicolin removal
[17] = 22 hrs after aphidicolin removal
[18] = 24 hrs after aphidicolin removal
[19] = 26 hrs after aphidicolin removal
[20] = 28 hrs after aphidicolin removal
[21] = 30 hrs after aphidicolin removal

SMILES: C[C@@]1(CO)[C@H](O)CC[C@@]2(C)[C@H]1CC[C@H]1C[C@@H]3C[C@@]12CC[C@]3(O)CO [aphidicolin]
- Labelling Index (%) ([1]; 1 h after aphidicolin removal): 19.41%
- Mitotic index (%) ([1]; 1 h after aphidicolin removal): 0%
- Labelling Index (%) ([1]; 2 h after aphidicolin removal): 35.47%
- Mitotic index (%) ([1]; 2 h after aphidicolin removal): 0.2%
- Labelling Index (%) ([1]; 3 h after aphidicolin removal): 69.46%
- Mitotic index (%) ([1]; 3 h after aphidicolin removal): 0.4%
- Labelling Index (%) ([1]; 4 h after aphidicolin removal): 66%
- Mitotic index (%) ([1]; 4 h after aphidicolin removal): 0.6%
- Labelling Index (%) ([1]; 5 h after aphidicolin removal): 39.22%
- Mitotic index (%) ([1]; 5 h after aphidicolin removal): 1.21%
- Labelling Index (%) ([1]; 6 h after aphidicolin removal): 16.05%
- Mitotic index (%) ([1]; 6 h after aphidicolin removal): 0.92%
- Labelling Index (%) ([1]; 7 h after aphidicolin removal): 13.27%
- Mitotic index (%) ([1]; 7 h after aphidicolin removal): 0.71%
- Labelling Index (%) ([1]; 8 h after aphidicolin removal): 9.6%
- Mitotic index (%) ([1]; 8 h after aphidicolin removal): 1.87%
- Labelling Index (%) ([1]; 9 h after aphidicolin removal): 8.23%
- Mitotic index (%) ([1]; 9 h after aphidicolin removal): 2.41%
- Labelling Index (%) ([1]; 10 h after aphidicolin removal): 9.23%
- Mitotic index (%) ([1]; 10 h after aphidicolin removal): 6.09%
- Labelling Index (%) ([1]; 11 h after aphidicolin removal): 4.6%
- Mitotic index (%) ([1]; 11 h after aphidicolin removal): 6.7%
- Labelling Index (%) ([1]; 12 h after aphidicolin removal): 1.46%
- Mitotic index (%) ([1]; 12 h after aphidicolin removal): 10.72%
- Labelling Index (%) ([1]; 13 h after aphidicolin removal): 2.78%
- Mitotic index (%) ([1]; 13 h after aphidicolin removal): 11.06%
- Labelling Index (%) ([1]; 14 h after aphidicolin removal): 3.61%
- Mitotic index (%) ([1]; 14 h after aphidicolin removal): 10.99%
- Labelling Index (%) ([1]; 15 h after aphidicolin removal): 2.73%
- Mitotic index (%) ([1]; 15 h after aphidicolin removal): 6.74%
- Labelling Index (%) ([1]; 16 h after aphidicolin removal): 2.28%
- Mitotic index (%) ([1]; 16 h after aphidicolin removal): 5.79%
- Labelling Index (%) ([1]; 17 h after aphidicolin removal): 1.96%
- Mitotic index (%) ([1]; 17 h after aphidicolin removal): 4.49%
- Labelling Index (%) ([1]; 18 h after aphidicolin removal): 3.3%
- Mitotic index (%) ([1]; 18 h after aphidicolin removal): 4.01%
- Labelling Index (%) ([1]; 19 h after aphidicolin removal): 7.62%
- Mitotic index (%) ([1]; 19 h after aphidicolin removal): 2.38%
- histone H4 % [2, 6]: 33.81%
- histone H4 Band intensity [2, 6]: 1029
- histone H4 % [2, 7]: 100.0%
- histone H4 Band intensity [2, 7]: 3046
- histone H4 % [2, 8]: 84.73%
- histone H4 Band intensity [2, 8]: 2580
- histone H4 % [2, 9]: 58.91%
- histone H4 Band intensity [2, 9]: 1794
- histone H4 % [2, 10]: 32.42%
- histone H4 Band intensity [2, 10]: 987
- histone H4 % [2, 11]: 38.70%
- histone H4 Band intensity [2, 11]: 1178
- histone H4 % [2, 12]: 28.53%
- histone H4 Band intensity [2, 12]: 868
- histone H4 % [2, 13]: 22.81%
- histone H4 Band intensity [2, 13]: 694
- histone H4 % [2, 14]: 12.75%
- histone H4 Band intensity [2, 14]: 388
- histone H4 % [2, 15]: 11.26%
- histone H4 Band intensity [2, 15]: 343
- histone H4 % [2, 16]: 19.43%
- histone H4 Band intensity [2, 16]: 591
- histone H4 % [2, 17]: 17.55%
- histone H4 Band intensity [2, 17]: 534
- histone H4 % [2, 18]: 17.77%
- histone H4 Band intensity [2, 18]: 541
- histone H4 % [2, 19]: 23.04%
- histone H4 Band intensity [2, 19]: 701
- histone H4 % [2, 20]: 14.35%
- histone H4 Band intensity [2, 20]: 437
- CDK-b1 % [3, 6]: 34.26%
- CDK-b1 Band intensity [3, 6]: 500
- CDK-b1 % [3, 7]: 57.86%
- CDK-b1 Band intensity [3, 7]: 844
- CDK-b1 % [3, 8]: 69.78%
- CDK-b1 Band intensity [3, 8]: 1018
- CDK-b1 % [3, 9]: 74.34%
- CDK-b1 Band intensity [3, 9]: 1085
- CDK-b1 % [3, 10]: 79.46%
- CDK-b1 Band intensity [3, 10]: 1160
- CDK-b1 % [3, 11]: 96.41%
- CDK-b1 Band intensity [3, 11]: 1407
- CDK-b1 % [3, 12]: 99.31%
- CDK-b1 Band intensity [3, 12]: 1450
- CDK-b1 % [3, 13]: 100.0%
- CDK-b1 Band intensity [3, 13]: 1459
- CDK-b1 % [3, 14]: 73.89%
- CDK-b1 Band intensity [3, 14]: 1078
- CDK-b1 % [3, 15]: 51.49%
- CDK-b1 Band intensity [3, 15]: 751
- CDK-b1 % [3, 16]: 58.87%
- CDK-b1 Band intensity [3, 16]: 859
- CDK-b1 % [3, 17]: 42.07%
- CDK-b1 Band intensity [3, 17]: 614
- CDK-b1 % [3, 18]: 30.65%
- CDK-b1 Band intensity [3, 18]: 447
- CDK-b1 % [3, 19]: 49.74%
- CDK-b1 Band intensity [3, 19]: 726
- CDK-b1 % [3, 20]: 50.87%
- CDK-b1 Band intensity [3, 20]: 742
- CDK-b1 % [3, 21]: 57.47%
- CDK-b1 Band intensity [3, 21]: 839
- cell cycle arrest [4]: G1/early S
- peak mitotic index [5]: up to 40%
